A short description of data set [1]: Plasma ammonia after feeding molassed sugar beet supplemented with L-glutamine (dry-strip analyser). It is filed as in vivo, horse. Particulars: glutamine supplementation, 60 mg/kg bwt with mSB. As to the method:
The mSB, hay and water were provided as in Part 1.
Blood samples were drawn through an indwelling jugular catheter into tubes containing lithium heparin (on ice). In Part 1 samples were taken pre and at 0.5, 1, 1.5, 2, 3, 4, 6 and 8 hours post feed. In Parts 2, 3 and 4 samples were taken pre and at 0.25, 0.5, 0.75, 1, 1.5, 2, 3, 4, 6 and 8 hours. Samples were centrifuged, the plasma harvested, divided into aliquots and stored at −80° C.
Total plasma protein content was estimated using a refractometer (Goldberg Refractometer).

On the set-up of data set [2]: species or system horse. The settings on record: in vivo. The source says: Six stabled Thoroughbred horses (2 mares, 4 geldings; aged 5-9 years), were maintained on hay and mixed feed for a minimum of two weeks before the start of the study. Horses were fed at 8 am and 4 pm. The mixed feed was a mix of cereal sources, fibre sources and protein sources with added vitamins and minerals. The ingredients included, in descending order of inclusion, enriched fibre pellets, rolled oats, soya hull pellets, flaked maise, flaked barley, flaked peas, molgio, full fat soya, vegetable oils, lucerne (alfalfa), calcium carbonate, dicalcium phosphate, salt, lysine, magnesium phosphate and zinc sulphate. Analysis: oil 8%, protein 12%, fibre 11%, ash 7.5%.
Within each part of the study, the order of the feeds was randomised between horses using a Latin Square design. The study comprised four parts:
Part 1: Acute plasma glutamine response to a single feed of molassed sugar beet (mSB), naked oats (nO) and mixed feed (M). […] Total plasma proteins were measured as an indication of plasma volume changes related to the hay or test feeds. […]
Plasma was deproteinised with an equal volume of perchloric acid and neutralised with KHCO3. […] The method was a consolidation of those by Lund (1974), and, Beutler and Michal (1974), creating a one-step enzymic method applied to a microplate reader using only 20 μl of sample. […]

“Also recorded” adds a separate entry of the source.

With `NC(=O)CC[C@H](N)C(=O)O` [L-glutamine], the “effect on plasma ammonia concentration” value is “unaffected; also recorded: Neither did oral ingestion of glutamine have any effect” in data set [1] and “no significant increase” in data set [1] (listed as G). In addition, the “response (peak concentration and AUC) compared with the peptide” value in data set [2] is recorded as “greater response”.

For the origin of these results see patent US20030162723A1, “Supplementation of equine feedstuffs” (priority 2000, published 2003).
